Test results: US10624345B2, “Protoporphyrinogen oxidase inhibitor mixtures” (Valent U.S.A. LLC, priority 2017, dated 2020)
“Also recorded” adds a separate entry of the source.

Assays:
[1] = tested on: weeds; assay: Field trial, impact of the adjuvant system on herbicide effectiveness, weeds overall; type: in vivo; conditions: compared with the other adjuvant; no weed named; in words
Procedure: (§1) A field trial was conducted in Mississippi, United States, to evaluate the impact of the C16 to C18 fatty acid methyl esters adjuvant system on the effectiveness of several herbicides. Rice, soybeans, cotton, peanut and corn seeds were planted and irrigated on two days after planting. Seven days after planting there was good stand of all of the crops, except only 4 of the 9 rows of rice were visible. The weeds were about 3 centimeters tall at this time. The treatments in Table 2 below were applied 13 days after planting. The rate of each treatment is below in Table 2 and all of the adjuvant systems were mixed with the herbicides at a rate of 1% v/v.
(§2) At the time of treatment: Hemp Sesbania was at the V4 growth stage and from about 3 to 5 about inches tall; Ivyleaf Morningglory was at the V3 growth stage and from about 2 to about 4 inches tall; Common Barnyardgrass was at the V5 growth stage and from about 2.5 to about 6 inches tall; Palmer Amaranth was at the vegetative growth stage and from about 2 to about 7 inches tall; Yellow Nutsedge was at the V8 growth stage and from about 3 to about 6 inches tall; and Broadleaf Signalgrass was at the second true leaf growth stage and from about 2 to about 4 inches tall.
The weeds were evaluated fourteen days after treatment.
(§3) The adjuvant system described in Example 1 above was used as the source of the C16 to C18 fatty acid methyl esters adjuvant system used in this study.

[2] = tested on: Hemp Sesbania; assay: Field trial, post-emergence weed control, Hemp Sesbania; type: in vivo; conditions: compared with the other adjuvant; in words
Procedure: as §1, §2
(§4) The weeds were evaluated fourteen days after treatment. […]

[3] = tested on: Ivyleaf Morningglory; assay: Field trial, post-emergence weed control, Ivyleaf Morningglory; type: in vivo; conditions: compared with the other adjuvant; in words
Procedure: as §1, §2, §4

[4] = tested on: Common Barnyardgrass; assay: Field trial, post-emergence weed control, Common Barnyardgrass; type: in vivo, Echinochloa crus-galli; conditions: compared with the other adjuvant; in words
Procedure: as §1, §2, §4

[5] = tested on: Broadleaf Signalgrass; assay: Field trial, post-emergence weed control, Broadleaf Signalgrass; type: in vivo, Brachiaria platyhylla; conditions: compared with the other adjuvant; in words
Procedure: as §1, §2, §4

[6] = tested on: Palmer Amaranth; assay: Field trial, post-emergence weed control, Palmer Amaranth; type: in vivo; conditions: compared with the other adjuvant; in words
Procedure: as §1, §2, §4

[7] = tested on: Yellow Nutsedge; assay: Field trial, post-emergence weed control, Yellow Nutsedge; type: in vivo, Cyperus esculentus; conditions: compared with the other adjuvant; in words
Procedure: as §1, §2, §4

[8] = tested on: rice; assay: Field trial, crop phytotoxicity, rice; type: in vivo; conditions: compared with the other adjuvant; in words
Procedure: as §1
(§5) At the time of treatment: rice was at the first true leaf growth stage and from about 5 to 7 inches tall; soybeans were at the V2 growth stage and from about 5 to 7 inches tall; cotton was at the V2 growth stage and from about 5 to 7 inches tall; peanut was at the V5 growth stage and from about 3 to 5 inches tall; and corn was at the V3 growth stage and from about 9 to 12 inches tall.
as §3
(§6) In this study, phytotoxicity of the crops was also evaluated.

[9] = tested on: soybeans; assay: Field trial, crop phytotoxicity, soybeans; type: in vivo; conditions: compared with the other adjuvant; in words
Procedure: as §1, §5, §3, §6

[10] = tested on: cotton; assay: Field trial, crop phytotoxicity, cotton; type: in vivo; conditions: compared with the other adjuvant; in words
Procedure: as §1, §5, §3, §6

[11] = tested on: peanut; assay: Field trial, crop phytotoxicity, peanut; type: in vivo; conditions: compared with the other adjuvant; in words
Procedure: as §1, §5, §3, §6

[12] = tested on: corn; assay: Field trial, crop phytotoxicity, corn; type: in vivo; conditions: compared with the other adjuvant; in words
Procedure: as §1, §5, §3, §6

## CCOC(=O)C(C)OC(=O)c1cc(Oc2ccc(C(F)(F)F)cc2Cl)ccc1[N+](=O)[O-] (centres unmarked) [lactofen]
[1]
  Effect of C16 to C18 fatty acid methyl esters adjuvant system on effectiveness/efficacy of the herbicide (weeds overall): did not improve the efficacy; also recorded: failed to increase the effectiveness

## CCOC(=O)COc1ncccc1Oc1cc(-n2c(=O)cc(C(F)(F)F)n(C)c2=O)c(F)cc1Cl [ethyl [3-[2-chloro-4-fluoro-5-(1-methyl-6-trifluoromethyl-2,4-dioxo-1,2,3,4-tetrahydropyrimidin-3-yl)phenoxy]-2-pyridyloxy]acetate]
[2]
  Effect of C16 to C18 fatty acid methyl esters adjuvant system on effectiveness on Hemp Sesbania: did not increase the effectiveness
[3]
  Effect of C16 to C18 fatty acid methyl esters adjuvant system on effectiveness on Ivyleaf Morningglory: did not increase the effectiveness
[4]
  Effect of C16 to C18 fatty acid methyl esters adjuvant system on effectiveness on Common Barnyardgrass: increases the effectiveness
[5]
  Effect of C16 to C18 fatty acid methyl esters adjuvant system on effectiveness on Broadleaf Signalgrass: increases the effectiveness
[6]
  Effect of C16 to C18 fatty acid methyl esters adjuvant system on effectiveness on Palmer Amaranth: did not increase the effectiveness
[7]
  Effect of C16 to C18 fatty acid methyl esters adjuvant system on effectiveness on Yellow Nutsedge: did not increase the effectiveness
[8]
  Effect of C16 to C18 fatty acid methyl esters adjuvant system on phytotoxicity on rice: increase the phytotoxicity
[9]
  Effect of C16 to C18 fatty acid methyl esters adjuvant system on phytotoxicity on soybeans: did not significantly increase phytotoxicity
[10]
  Effect of C16 to C18 fatty acid methyl esters adjuvant system on phytotoxicity on cotton: did not significantly increase phytotoxicity
[11]
  Effect of C16 to C18 fatty acid methyl esters adjuvant system on phytotoxicity on peanut: increase the phytotoxicity
[12]
  Effect of C16 to C18 fatty acid methyl esters adjuvant system on phytotoxicity on corn: did not significantly increase phytotoxicity
[1]
  Effect of C16 to C18 fatty acid methyl esters adjuvant system on effectiveness/efficacy of the herbicide (weeds overall): improved the efficacy

## C#CCN1C(=O)COc2cc(F)c(N3C(=O)C4=C(CCCC4)C3=O)cc21 [flumioxazin]
[1]
  Effect of C16 to C18 fatty acid methyl esters adjuvant system on effectiveness/efficacy of the herbicide (weeds overall): did not improve the efficacy; also recorded: failed to increase the effectiveness
